Key:
[1] = test system: C57/black 6 mice temporal cortex slices; assay: Slice electrophysiology assay (LTP, theta-burst stimulation); format: cell-based; settings: 1 μM compound; temporal cortex slices of C57/black 6 mice
Method: coronal cortical slices (400 μm) containing temporal cortex from 2- to 3-month-old C57-Black-6 mice male littermates (from Elevage Janvier, FRANCE) are prepared and allowed to recover in oxygenated (95% O2 and 5% CO2) warm (30° C.) artificial cerebrospinal fluid (ACSF) containing 124 mM NaCl, 5 mM KCl, 1.25 mM, NaH2PO4, 1 mM MgCl2, 2 mM CaCl2, 26 mM NaHCO3, and 10 mM dextrose.
a 10 mM DMSO stock solution is prepared for each test compound and 100 μL aliquots are stored at −20° C. On the day of experiment an aliquot is thawed and vortexed for fresh solutions preparation. The final concentration of DMSO is adjusted to 0.1% all solutions, including control ACSF solution. […]
a stimulus is applied every 30 s with an intensity settled at 40% of the maximal amplitude responses. […] Potentiation of synaptic transmission is then monitored for an additional 40 minutes period. […]
following a 10 minutes control recording period (to verify baseline stability), the compound is perfused for 20 minutes. Then, LTP is triggered and the fEPSP amplitude will be recorded for an additional 40 minutes period in the presence of compound.
fEPSP amplitudes are measured as the difference between the baseline (before stimulation) and the maximal peak amplitude. The fEPSP are normalized as a percent of the mean averaged amplitude recorded over a 10 min control period, before compound application. […]

PAK1 = PAK1 (Homo sapiens, UniProt Q13153); assay: Z'Lyte fluorescence-based (FRET) PAK kinase assay, PAK1; format: biochemical; settings: 50 μM ATP
Chain of PAK1 (Q13153 whole entry): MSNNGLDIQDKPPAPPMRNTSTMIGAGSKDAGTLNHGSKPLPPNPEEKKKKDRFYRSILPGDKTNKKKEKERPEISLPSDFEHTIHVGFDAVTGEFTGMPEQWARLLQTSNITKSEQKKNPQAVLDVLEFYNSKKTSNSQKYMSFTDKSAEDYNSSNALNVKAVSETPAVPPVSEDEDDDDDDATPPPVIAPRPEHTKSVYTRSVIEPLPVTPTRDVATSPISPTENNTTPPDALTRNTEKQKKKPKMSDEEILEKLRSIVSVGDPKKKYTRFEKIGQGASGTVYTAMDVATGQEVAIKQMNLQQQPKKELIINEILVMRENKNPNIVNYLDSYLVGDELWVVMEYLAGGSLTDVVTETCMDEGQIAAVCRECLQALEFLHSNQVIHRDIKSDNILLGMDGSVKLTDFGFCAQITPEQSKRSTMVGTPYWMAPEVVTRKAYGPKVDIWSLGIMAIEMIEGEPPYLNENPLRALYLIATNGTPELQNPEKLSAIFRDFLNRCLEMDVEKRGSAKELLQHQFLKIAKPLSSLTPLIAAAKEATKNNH
Procedure, shortened: (§1)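 Z'Lyte FRET assay: purified PAK with 2 uM Ser/Thr20 peptide in 50 mM HEPES pH 7.5, 10 mM MgCl2, 1% DMSO, ATP at apparent Km (PAK1 50 μM, PAK2 75 μM, PAK3 100 μM, PAK4 5 μM), 1 h room temperature, then 1 h protease development. Inhibition from 445/520 nm emission ratio; IC50 values.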

PAK4 = PAK4 (Homo sapiens, UniProt O96013); assay: Z'Lyte fluorescence-based (FRET) PAK kinase assay, PAK4; format: biochemical; settings: 5 μM ATP
Chain of PAK4 (O96013 whole entry): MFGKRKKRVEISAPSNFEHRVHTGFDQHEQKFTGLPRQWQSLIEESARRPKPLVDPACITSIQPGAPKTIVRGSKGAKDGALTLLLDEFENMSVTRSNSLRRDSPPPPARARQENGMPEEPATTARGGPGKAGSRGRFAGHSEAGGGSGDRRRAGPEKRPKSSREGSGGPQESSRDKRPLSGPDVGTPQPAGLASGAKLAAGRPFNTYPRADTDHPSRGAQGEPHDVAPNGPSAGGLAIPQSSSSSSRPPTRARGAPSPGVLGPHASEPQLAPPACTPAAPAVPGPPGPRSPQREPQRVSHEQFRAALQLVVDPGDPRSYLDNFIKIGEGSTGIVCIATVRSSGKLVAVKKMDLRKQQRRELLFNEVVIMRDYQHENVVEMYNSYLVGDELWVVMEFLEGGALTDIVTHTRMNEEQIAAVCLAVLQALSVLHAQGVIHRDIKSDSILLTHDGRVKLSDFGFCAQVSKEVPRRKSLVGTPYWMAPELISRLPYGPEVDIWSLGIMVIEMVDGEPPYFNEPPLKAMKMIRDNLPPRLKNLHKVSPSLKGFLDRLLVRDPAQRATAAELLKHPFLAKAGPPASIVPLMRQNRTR
Procedure, shortened: as §1

PAK2 = PAK2 (Homo sapiens, UniProt Q13177); assay: Z'Lyte fluorescence-based (FRET) PAK kinase assay, PAK2; format: biochemical
Chain of PAK2 (Q13177 whole entry): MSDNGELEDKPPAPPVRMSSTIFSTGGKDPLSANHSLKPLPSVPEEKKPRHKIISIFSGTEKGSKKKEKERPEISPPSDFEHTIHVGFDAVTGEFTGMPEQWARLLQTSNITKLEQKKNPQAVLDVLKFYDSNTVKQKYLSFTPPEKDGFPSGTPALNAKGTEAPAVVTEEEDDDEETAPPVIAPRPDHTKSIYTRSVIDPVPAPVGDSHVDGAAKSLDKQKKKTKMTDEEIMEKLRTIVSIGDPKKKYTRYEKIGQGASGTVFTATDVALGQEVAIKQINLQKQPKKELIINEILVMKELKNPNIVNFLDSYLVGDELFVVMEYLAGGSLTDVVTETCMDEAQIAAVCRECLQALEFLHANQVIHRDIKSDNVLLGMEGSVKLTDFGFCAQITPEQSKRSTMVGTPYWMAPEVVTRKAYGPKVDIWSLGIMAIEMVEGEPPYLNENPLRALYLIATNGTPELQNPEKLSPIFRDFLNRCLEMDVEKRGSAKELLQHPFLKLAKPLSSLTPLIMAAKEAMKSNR
Procedure, shortened: as §1

PAK3 = PAK3 (Homo sapiens, UniProt O75914); assay: Z'Lyte fluorescence-based (FRET) PAK kinase assay, PAK3; format: biochemical; settings: 100 μM ATP
Chain of PAK3 (O75914 whole entry): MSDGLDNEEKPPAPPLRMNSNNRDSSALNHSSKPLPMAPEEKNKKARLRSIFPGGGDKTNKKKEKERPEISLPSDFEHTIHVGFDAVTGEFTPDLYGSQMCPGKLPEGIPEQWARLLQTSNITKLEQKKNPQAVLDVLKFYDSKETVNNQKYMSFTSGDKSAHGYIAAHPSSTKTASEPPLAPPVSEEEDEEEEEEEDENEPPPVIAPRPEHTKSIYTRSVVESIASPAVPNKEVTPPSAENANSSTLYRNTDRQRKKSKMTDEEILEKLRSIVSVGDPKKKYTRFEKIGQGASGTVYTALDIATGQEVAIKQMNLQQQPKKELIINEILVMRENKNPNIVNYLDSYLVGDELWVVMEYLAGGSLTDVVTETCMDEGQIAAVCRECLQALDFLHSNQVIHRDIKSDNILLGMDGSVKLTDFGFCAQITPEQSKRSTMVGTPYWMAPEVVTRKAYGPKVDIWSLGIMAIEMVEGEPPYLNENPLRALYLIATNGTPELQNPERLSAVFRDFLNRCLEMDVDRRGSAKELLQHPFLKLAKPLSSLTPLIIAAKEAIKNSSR
Method: (§2) A fluorescence-based assay format is used to determine IC50 values of test compounds in vitro. Purified PAK kinase is incubated with ATP, and a test compound at various concentrations and a substrate peptide containing two fluorophores. In a second step, the reaction mix is incubated with a site-specific protease that cleaves non-phosphorylated bat not phosphorylated substrate peptide, disrupting the FRET signal generated by the two fluorophores in the cleaved peptide (Z′Lyte™ Kinase assay platform; Life Technologies).
(§3) Reagents: 50 mM HEPES, pH 7.5; 0.01% BRIJ-35; 10 nM MgCl1; 1 mM EGTA, 2 uM substrate peptide Ser/Thr20 (proprietary Life Technologies Sequence), PAK enzyme [2.42-30.8 ng for PAK1, 0.29-6 ng for PAK2, 1.5-20 ng for PAK3 and 0.1-0.86 ng for PAK4; actual enzyme amounts depend on lot activity of the enzyme preparation]
Test compounds are dissolved in DMSO at various concentrations; the final DMSO concentration in the assay reaction is 1%.
(§4) ATP concentration at Kin apparent is used in the assay [50 ┌M ATP for PAK1 assay, 75 ┌M ATP for PAK2 assay, 100 μM ATP for PAK3 assay, 5 μM ATP for PAK4 assay] in a total assay volume of 10 μl. Assay reactions are incubated at room temperature for 1 hr. Following the kinase reaction, 5 μl of 1:256 dilution of development solution A (Life Technologies) is added and the reaction mix is incubated for an additional 1 hr at room temperature.
Plates are analyzed in a standard fluorescence plate reader (Tecan or equivalent) using an excitation wavelength of 400 nn and emission wavelengths of 445 nm and 520 nm.
Inhibition of kinase reaction is determined by emission ratio=emission@445 nm/emission@520 nm
as §2, with “non-phosphorylated but” for “non-phosphorylated bat”, “peptide (Z'Lyte™” for “peptide (Z′Lyte™”, “assay platform” for “assay platform;”
as §3, with “mM MgCl2;” for “nM MgCl1;”
as §4, with “at Km” for “at Kin”, “[50 μMATP” for “[50 ┌M ATP”, “75 µM” for “75 ┌M”, “[…]” for “10 μl.”, “kinase reaction.” for “kinase reaction,”, “[…]” for “5 μl”
Plates are analyzed in a standard fluorescence plate reader (Teem or equivalent) using an excitation wavelength of 400 nm and emission wavelengths of 445 nm and 520 nm.

[2] = Table 1 of Example 100, 75 μM ATP
[3] = Table 1 of Example 29 (own compound numbering)

| IC50 (PAK1; Table 1 of Example 100) [nM] | IC50 (PAK4; Table 1 of Example 100) [nM] | IC50 (PAK2; [2]) [nM] | IC50 (PAK3; Table 1 of Example 100) [nM] | Compound | LTP compared to the baseline in a theta-burst stimulation protocol in the cortex [1] | further results |
| --- | --- | --- | --- | --- | --- | --- |
| – | – | – | – | COc1cc(Nc2nccc(-c3ccc(NCCN)nc3)n2)cc(OC)c1OC [Compound A, N^1-(5-(2-(3,4,5-trimethoxyphenylamino)pyrimidin-4-yl)pyridin-2-yl)ethane-1,2-diamine] | increased LTP | – |
| – | – | – | – | CN1CCN(c2ccc(Nc3ncc4ccc(=O)n(C5CCCC5)c4n3)cc2)CC1 [Compound G, 8-cyclopentyl-2-(4-(4-methylpiperazin-1-yl)phenylamino)pyrido[2,3-d]pyrimidin-7(8H)-one] | increased LTP | – |
| < 1000 | < 1000 | < 1000 | < 1000 | CN1CCCC(Nc2ccc(Nc3ncc4ccc(=O)n(Cc5ccccc5C(F)(F)F)c4n3)cc2)C1 (centres unmarked) [compound 61] | – | – |
| – | – | – | – | O=c1ccc2cnc(Nc3ccc(N4CCNCC4)cc3)nc2n1C1CCCc2ccccc21 (centres unmarked) [compound 61] | – | IC50 (PAK1; [3]): 1000 to 10000 nM; IC50 (PAK4; [3]): 1000 to 10000 nM; IC50 (PAK2; Table 1 of Example 29 (own compound numbering), 75 µM ATP): 1000 to 10000 nM; IC50 (PAK3; [3]): 1000 to 10000 nM |
| < 1000 | 1000 to 10000 | < 1000 | < 1000 | O=c1c(-c2ccccc2)cc2cnc(Nc3ccc(NC4CCCNC4)cc3)nc2n1Cc1ccccc1C(F)(F)F (centres unmarked) [compound 95] | – | – |
